Measurements as given in US12049450B2, “Pyridyloxy-carboxylate derivative and preparation method therefor, herbicidal composition, and use” (Qingdao Kingagroot Chemical Compound Co., Ltd., priority 2018, dated 2024).

How the values were obtained:
Assay type in all cases: in vivo
[1] = system: Digitaria sanguinalis; assay: Post-emergence test experiment (greenhouse pot, spray at 2-3 leaf stage); conditions: 1000 g/ha; post-emergence spray at 2-3 leaf stage; assessed after 3 weeks; fresh weight inhibition rate
Procedure, shortened: (§1)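 Weed seeds sown in soil-filled pots in greenhouse, sprayed at 2-3 leaf stage (2 weeks after sowing) with compound in acetone/tween-80 plus methyl oleate emulsible concentrate (1.5 L/ha) diluted in water. Fresh-weight growth inhibition scored after 3 weeks on 0-5 scale (5: >85%, 0: <5%).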

[2] = system: Echinochloa crusgalli; assay: as above; conditions: 1000 g/ha; post-emergence spray at 2-3 leaf stage; assessed after 3 weeks; fresh weight inhibition rate
Procedure, shortened: as §1

[3] = system: Galium spurium; assay: as above; conditions: 1000 g/ha; post-emergence spray at 2-3 leaf stage; assessed after 3 weeks; fresh weight inhibition rate
Procedure, shortened: as §1

[4] = system: Monochoria vaginalis; assay: as above; conditions: 1000 g/ha; post-emergence spray at 2-3 leaf stage; assessed after 3 weeks; fresh weight inhibition rate
Procedure, shortened: as §1

[5] = system: Abutilon theophrasti; assay: as above; conditions: 1000 g/ha; post-emergence spray at 2-3 leaf stage; assessed after 3 weeks; fresh weight inhibition rate
Procedure, shortened: as §1

[6] = system: Soybean; assay: Spray drift test, application by unmanned gyroplane, soybean field at 10 meters; conditions: 600 g/ha, gyroplane at 1 m, gentle breeze
Procedure: Broadleaf crops are very sensitive to hormonal herbicides, therefore crop injuries are more likely to occur in case of spray drifting. Tests were conducted in gentle breeze for the compounds of the present invention. The formulation of the compounds of the present invention was applied by DJI unmanned gyroplane with application height of 1 m and water volume of 20 kg/ha. The use rate was 600 g/ha. The active ingredient was dissolved by acetone and diluted to aqueous solution of Tween 80. There's a soybean field at 10 meters from the application area and the height of soybean plants were about 15 cm at the application time.

| Structure (SMILES) | Activity level (growth inhibition rate) Digitaria sanguinalis [1] | Activity level (growth inhibition rate) Echinochloa crusgalli [2] | Activity level (growth inhibition rate) Galium spurium [3] | Activity level (growth inhibition rate) Monochoria Vaginalis [4] | Activity level (growth inhibition rate) Abutilon theophrasti [5] | Soybean, injury level by spray drift [6] |
| --- | --- | --- | --- | --- | --- | --- |
| CC(Oc1nc(F)c(Cl)c(N)c1Cl)C(=O)SCc1ccc(-c2ccccc2)cc1 (racemic) [Compound 113] | 5 (Level 5: the growth inhibition rate is greater than 85%) | 5 (Level 5: the growth inhibition rate is greater than 85%) | 5 (Level 5: the growth inhibition rate is greater than 85%) | 5 (Level 5: the growth inhibition rate is greater than 85%) | 5 (Level 5: the growth inhibition rate is greater than 85%) | 0 (Level 0: the growth inhibition rate is less than 5%) |
| CC(Oc1nc(F)c(F)c(N)c1F)C(=O)OCc1ccccc1 (stereo not drawn) [Compound 1] | 5 (Level 5: the growth inhibition rate is greater than 85%) | 5 (Level 5: the growth inhibition rate is greater than 85%) | 5 (Level 5: the growth inhibition rate is greater than 85%) | 5 (Level 5: the growth inhibition rate is greater than 85%) | 5 (Level 5: the growth inhibition rate is greater than 85%) | 0 (Level 0: the growth inhibition rate is less than 5%) |
| CC(Oc1nc(Cl)c(Cl)c(N)c1Cl)C(=O)OCc1ccccc1 (stereo not drawn) [Compound 2] | 5 (Level 5: the growth inhibition rate is greater than 85%) | 5 (Level 5: the growth inhibition rate is greater than 85%) | 5 (Level 5: the growth inhibition rate is greater than 85%) | 5 (Level 5: the growth inhibition rate is greater than 85%) | 5 (Level 5: the growth inhibition rate is greater than 85%) | 0 (Level 0: the growth inhibition rate is less than 5%) |
| CC(Oc1ncc(Cl)c(N)c1Cl)C(=O)OCc1ccccc1 (stereo not drawn) [Compound 3] | 5 (Level 5: the growth inhibition rate is greater than 85%) | 5 (Level 5: the growth inhibition rate is greater than 85%) | 5 (Level 5: the growth inhibition rate is greater than 85%) | 5 (Level 5: the growth inhibition rate is greater than 85%) | 5 (Level 5: the growth inhibition rate is greater than 85%) | 0 (Level 0: the growth inhibition rate is less than 5%) |
| CC(C)C(Oc1nc(F)c(Cl)c(N)c1Cl)C(=O)OCc1ccccc1 (stereo not drawn) [Compound 27] | – | – | 5 (Level 5: the growth inhibition rate is greater than 85%) | 5 (Level 5: the growth inhibition rate is greater than 85%) | 5 (Level 5: the growth inhibition rate is greater than 85%) | 0 (Level 0: the growth inhibition rate is less than 5%) |
| Nc1c(Cl)c(F)nc(OC(C(=O)OCc2ccccc2)C(F)(F)F)c1Cl (stereo not drawn) [Compound 41] | – | – | 5 (Level 5: the growth inhibition rate is greater than 85%) | 5 (Level 5: the growth inhibition rate is greater than 85%) | 5 (Level 5: the growth inhibition rate is greater than 85%) | 0 (Level 0: the growth inhibition rate is less than 5%) |
| N#CC(Oc1nc(F)c(Cl)c(N)c1Cl)C(=O)OCc1ccccc1 (stereo not drawn) [Compound 43] | – | – | 5 (Level 5: the growth inhibition rate is greater than 85%) | 5 (Level 5: the growth inhibition rate is greater than 85%) | 5 (Level 5: the growth inhibition rate is greater than 85%) | 0 (Level 0: the growth inhibition rate is less than 5%) |
| CN(C)CC(Oc1nc(F)c(Cl)c(N)c1Cl)C(=O)SCc1ccccc1 (stereo not drawn) [Compound 46] | – | – | 5 (Level 5: the growth inhibition rate is greater than 85%) | 5 (Level 5: the growth inhibition rate is greater than 85%) | 5 (Level 5: the growth inhibition rate is greater than 85%) | 0 (Level 0: the growth inhibition rate is less than 5%) |
| COC(Oc1nc(F)c(Cl)c(N)c1Cl)C(=O)SCc1ccccc1 (stereo not drawn) [Compound 50] | – | – | 5 (Level 5: the growth inhibition rate is greater than 85%) | 5 (Level 5: the growth inhibition rate is greater than 85%) | 5 (Level 5: the growth inhibition rate is greater than 85%) | 0 (Level 0: the growth inhibition rate is less than 5%) |
| Nc1c(Cl)c(F)nc(OC(Cc2ccccc2)C(=O)OCc2ccccc2)c1Cl (stereo not drawn) [Compound 53] | – | – | 5 (Level 5: the growth inhibition rate is greater than 85%) | 5 (Level 5: the growth inhibition rate is greater than 85%) | 5 (Level 5: the growth inhibition rate is greater than 85%) | 0 (Level 0: the growth inhibition rate is less than 5%) |
| Nc1c(Cl)c(F)nc(OC(C(=O)OCc2ccccc2)c2cccs2)c1Cl (stereo not drawn) [Compound 54] | – | – | 5 (Level 5: the growth inhibition rate is greater than 85%) | 5 (Level 5: the growth inhibition rate is greater than 85%) | 5 (Level 5: the growth inhibition rate is greater than 85%) | 0 (Level 0: the growth inhibition rate is less than 5%) |
| CC(Oc1nc(F)c(Cl)c(N)c1Cl)C(=O)OCc1cc(C(F)(F)F)ccc1F (stereo not drawn) [Compound 82] | 5 (Level 5: the growth inhibition rate is greater than 85%) | 5 (Level 5: the growth inhibition rate is greater than 85%) | 5 (Level 5: the growth inhibition rate is greater than 85%) | 5 (Level 5: the growth inhibition rate is greater than 85%) | 5 (Level 5: the growth inhibition rate is greater than 85%) | 0 (Level 0: the growth inhibition rate is less than 5%) |
| CC(Oc1nc(F)c(Cl)c(N)c1Cl)C(=O)OCc1c(F)ccc(F)c1F (stereo not drawn) [Compound 83] | 5 (Level 5: the growth inhibition rate is greater than 85%) | 5 (Level 5: the growth inhibition rate is greater than 85%) | 5 (Level 5: the growth inhibition rate is greater than 85%) | 5 (Level 5: the growth inhibition rate is greater than 85%) | 5 (Level 5: the growth inhibition rate is greater than 85%) | 0 (Level 0: the growth inhibition rate is less than 5%) |
| CC(Oc1nc(F)c(Cl)c(NCc2ccco2)c1Cl)C(=O)OCc1ccccc1 (stereo not drawn) [Compound 193] | 5 (Level 5: the growth inhibition rate is greater than 85%) | 5 (Level 5: the growth inhibition rate is greater than 85%) | 5 (Level 5: the growth inhibition rate is greater than 85%) | 5 (Level 5: the growth inhibition rate is greater than 85%) | 5 (Level 5: the growth inhibition rate is greater than 85%) | 0 (Level 0: the growth inhibition rate is less than 5%) |
| CC(Oc1nc(F)c(Cl)c(NCc2ccc(C(F)(F)F)o2)c1Cl)C(=O)SCc1ccccc1 (stereo not drawn) [Compound 239] | 5 (Level 5: the growth inhibition rate is greater than 85%) | 5 (Level 5: the growth inhibition rate is greater than 85%) | 5 (Level 5: the growth inhibition rate is greater than 85%) | 5 (Level 5: the growth inhibition rate is greater than 85%) | 5 (Level 5: the growth inhibition rate is greater than 85%) | – |
